Reference: patent publication US8426420B2, “Heterocyclic pyrazole-carboxamidesas P2Y12 antagonists” (Sanofi, priority 2007, dated 2013)

These compounds were tested against human P2Y12 receptor (Homo sapiens, UniProt Q9H244) (assay: Human P2Y12 recombinant cell membrane binding assay with 33P 2MeS-ADP). Settings: competition against 33P 2MeS-ADP, membranes of CHO cells with recombinant human P2Y12 receptor.
Description: The ability of the compounds of the formula Ito inhibit the P2Y12 receptor can be assessed by determining the concentration of the compound of the formula I that binds to the human P2Y12 Recombinant Cell Membrane Binding Assay with 33P 2MeS-ADP.
Human P2Y12 Recombinant Cell Membrane Binding Assay
The ability of a test compound to bind to the P2Y12 receptor was evaluated in a recombinant cell membrane binding assay. In this competitive binding assay, the test compound competed against a radiolabeled agonist for binding to the P2Y12 receptor, expressed on the cell membrane. Inhibition of binding of the labeled material was measured and correlated to the amount and potency of the test compound. This binding assay is a modification of the procedure described by Takasaki, J. et. al, Mol. Pharmacol., 2001, Vol. 60, pg. 432. A membrane preparation was prepared from Chinese Hamster Ovary (CHO) cells with recombinant expression of the human P2Y12 receptor according to standard procedures as a source of P2Y12.
To a 96-well microtiterplate the following were added: a) 24 μl of assay buffer (10 mM HEPES, 138 mM NaCl, […] KCl, 12 mM NaHCO3, 1 mM EDTA-Na, 0.1% BSA, pH 7.4) b) 1 μL compound in DMSO c) 50 μL P2Y12 CHO membrane (20 μg/ml) and after 15 min at RT d) 25 μL of 1.61 nM 33P 2MeS-ADP (Perkin Elmer NEN custom synthesis, specific activity ˜2100 Ci/mmol) made in assay buffer.
After 20 min incubation at RT samples were transferred to 96-well microtiter filterplates (Millipore HTS GF/B), pre-wetted for 20 min with 300 μL of stop buffer (10 mM HEPES, 138 mM NaCl pH 7.4) and then filtered through completely with a Millipore plate vacuum. Next, wells were washed four times with 400 μl/well of stop buffer on a plate vacuum. The plate was disassembled and allowed to air dry overnight with the filter side up over night. The filter plates were snapped into adapter plates and 0.1 mL of Microscint 20 Scintillation Fluid (Perkin Elmer #6013621) was added to each well. The top of the filterplate was sealed with plastic plate covers. The sealed filterplate were incubated 2 hours at RT. A Microbeta Scintillation Counter was used to measure counts.
Compounds were diluted as 10 mM DMSO stocks and tested in a four-point, five-fold dilution series run in triplicate beginning at 10 μM, final concentration. Data were analyzed using a four-parameter curve fit with a fixed minimum and maximum experimentally defined as the average positive and negative controls on each plate.

Sequence of human P2Y12 receptor (Q9H244 whole entry): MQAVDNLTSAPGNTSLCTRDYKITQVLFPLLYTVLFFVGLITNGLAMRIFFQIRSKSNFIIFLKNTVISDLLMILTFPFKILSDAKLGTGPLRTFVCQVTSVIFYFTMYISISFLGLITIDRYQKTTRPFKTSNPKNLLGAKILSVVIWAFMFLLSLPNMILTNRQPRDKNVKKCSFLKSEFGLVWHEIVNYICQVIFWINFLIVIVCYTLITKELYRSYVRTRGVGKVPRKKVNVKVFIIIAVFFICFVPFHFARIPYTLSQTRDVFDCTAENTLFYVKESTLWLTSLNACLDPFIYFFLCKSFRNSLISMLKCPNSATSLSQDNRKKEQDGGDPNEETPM

Compound	IC50
CCOC(=O)N1CCN(C(=O)[C@H](CCC(=O)O)NC(=O)c2cc(OCC(=O)N3CCC[C@H]3C(=O)NCCSC)n(-c3ccccc3)n2)CC1 [Example 3, 4-{(S)-4-Carboxy-2-[(5-{2-[(S)-2-(2-methylsulfanyl-ethylcarbamoyl)-pyrrolidin-1-yl]-2-oxo-ethoxy}-1-phenyl-1H-pyrazole-3-carbonyl)-amino]-butyryl}-piperazine-1-carboxylic acid ethyl ester]	183 nM
CCOC(=O)N1CCN(C(=O)[C@H](CC(=O)O)NC(=O)c2cc(OCC(=O)N3CCC[C@H]3C(=O)NCC(F)F)n(-c3ccccc3)n2)CC1 [Example 57, 4-{(S)-3-Carboxy-2-[(5-{2-[(S)-2-(2,2-difluoro-ethylcarbamoyl)-pyrrolidin-1-yl]-2-oxo-ethoxy}-1-phenyl-1H-pyrazole-3-carbonyl)-amino]-propionyl}-piperazine-1-carboxylic acid ethyl ester]	183 nM
CCOC(=O)N1CCN(C(=O)[C@H](CC(=O)O)NC(=O)c2cc(OCC(=O)N3CCC[C@H]3C(=O)NCCF)n(-c3cccc(F)c3)n2)CC1 [Example 78, 4-((S)-3-Carboxy-2-{[5-[2-((S)-2-(2-fluoroethylcarbamoyl)-pyrrolidin-1-yl)-2-oxo-ethoxy]-1-(3-fluoro-phenyl)-1H-pyrazole-3-carbonyl]-amino}-propionyl)-piperazine-1-carboxylic acid ethyl ester]	190 nM
CCOC(=O)N1CCN(C(=O)[C@H](CC(=O)O)NC(=O)c2cc(OCC(=O)N3CCC[C@H]3C(=O)NCC(F)F)n(-c3cccc(F)c3)n2)CC1 [Example 79, 4-((S)-3-Carboxy-2-{[5-[2-((S)-2-(2,2-difluoroethylcarbamoyl)-pyrrolidin-1-yl)-2-oxo-ethoxy]-1-(3-fluoro-phenyl)-1H-pyrazole-3-carbonyl]-amino}-propionyl)-piperazine-1-carboxylic acid ethyl ester]	145 nM
CCOC(=O)N1CCN(C(=O)[C@H](CCC(=O)O)NC(=O)c2cc(OCC(=O)N3CCC[C@H]3C(=O)NCC(F)(F)F)n(-c3ccc(F)c(F)c3)n2)CC1 [Example 85, 4-((S)-4-Carboxy-2-{[5-[2-((S)-2-(2,2,2-trifluoroethylcarbamoyl)-pyrrolidin-1-yl)-2-oxo-ethoxy]-1-(3,4-difluoro-phenyl)-1H-pyrazole-3-carbonyl]-amino}-butyryl)-piperazine-1-carboxylic acid ethyl ester]	154 nM
CCOC(=O)N1CCN(C(=O)[C@H](CNS(C)(=O)=O)NC(=O)c2cc(OCC(=O)N3CCC[C@H]3C(=O)NC3CCC3)n(-c3ccccc3)n2)CC1 [Example 88, 4-[(S)-2-({5-[2-((S)-2-Cyclobutylcarbamoyl-pyrrolidin-1-yl)-2-oxo-ethoxy]-1-phenyl-1H-pyrazole-3-carbonyl}-amino)-3-methanesulfonylamino-propionyl]-piperazine-1-carboxylic acid ethyl ester]	125 nM
CCOC(=O)N1CCN(C(=O)[C@H](CNC(=O)C2CC2)NC(=O)c2cc(OCC(=O)N3CCC[C@H]3C(=O)NC3CCC3)n(-c3ccccc3)n2)CC1 [Example 91, 4-[(S)-2-({5-[2-((S)-2-Cyclobutylcarbamoyl-pyrrolidin-1-yl)-2-oxo-ethoxy]-1-phenyl-1H-pyrazole-3-carbonyl}-amino)-3-(cyclopropanecarbonyl-amino)-propionyl]-piperazine-1-carboxylic acid ethyl ester]	130 nM
CCOC(=O)N1CCN(C(=O)[C@H](CCNC(=O)C(C)(C)C)NC(=O)c2cc(OCC(=O)N3CCC[C@H]3C(=O)NC3CCC3)n(-c3ccccc3)n2)CC1 [Example 99, 4-[(S)-2-({5-[2-((S)-2-Cyclobutylcarbamoyl-pyrrolidin-1-yl)-2-oxo-ethoxy]-1-phenyl-1H-pyrazole-3-carbonyl}-amino)-4-(2,2-dimethyl-propionylamino)-butyryl]-piperazine-1-carboxylic acid ethyl ester]	158 nM
CCOC(=O)N1CCN(C(=O)[C@H](CCNC(=O)C(C)C)NC(=O)c2cc(OCC(=O)N3CCC[C@H]3C(=O)NC3CCC3)n(-c3ccccc3)n2)CC1 [Example 100, 4-[(S)-2-({5-[2-((S)-2-Cyclobutylcarbamoyl-pyrrolidin-1-yl)-2-oxo-ethoxy]-1-phenyl-1H-pyrazole-3-carbonyl}-amino)-4-isobutyrylamino-butyryl]-piperazine-1-carboxylic acid ethyl ester]	197 nM
CCCCOC(=O)NC1CCN(C(=O)[C@H](CCC(=O)O)NC(=O)c2cc(OCC(=O)N3CCC[C@H]3C(=O)NC3CCC3)n(-c3ccccc3)n2)CC1 [Example 102, (S)-5-(4-Butoxycarbonylamino-piperidin-1-yl)-4-({5-[2-((S)-2-cyclobutylcarbamoyl-pyrrolidin-1-yl)-2-oxo-ethoxy]-1-phenyl-1H-pyrazole-3-carbonyl}-amino)-5-oxo-pentanoic acid]	58 nM

Further compounds by falling IC50, results first:

IC50	Compound
111 nM	CCOC(=O)N1CCN(C(=O)[C@H](CNC(=O)OC)NC(=O)c2cc(OCC(=O)N3CCC[C@H]3C(=O)NC3CCC3)n(-c3ccccc3)n2)CC1 [Example 89, 4-[(S)-2-({5-[2-((S)-2-Cyclobutylcarbamoyl-pyrrolidin-1-yl)-2-oxo-ethoxy]-1-phenyl-1H-pyrazole-3-carbonyl}-amino)-3-methoxycarbonylamino-propionyl]-piperazine-1-carboxylic acid ethyl ester]
83 nM	CCOC(=O)N1CCN(C(=O)[C@H](CCC(=O)OC2CCCCC2)NC(=O)c2cc(OCC(=O)N3CCC[C@H]3C(=O)NC3CCC3)n(-c3ccccc3)n2)CC1 [Example 129, 4-[(S)-2-({5-[2-((S)-2-Cyclobutylcarbamoyl-pyrrolidin-1-yl)-2-oxo-ethoxy]-1-phenyl-1H-pyrazole-3-carbonyl}-amino)-4-cyclohexyloxycarbonyl-butyryl]-piperazine-1-carboxylic acid ethyl ester]
59 nM	CCOC(=O)N1CCN(C(=O)[C@H](CCNS(C)(=O)=O)NC(=O)c2cc(OCC(=O)N3CCC[C@H]3C(=O)NC3CCC3)n(-c3ccccc3)n2)CC1 [Example 94, 4-[(S)-2-({5-[2-((S)-2-Cyclobutylcarbamoyl-pyrrolidin-1-yl)-2-oxo-ethoxy]-1-phenyl-1H-pyrazole-3-carbonyl}-amino)-4-methanesulfonylamino-butyryl]-piperazine-1-carboxylic acid ethyl ester]
59 nM	CCOC(=O)N1CCN(C(=O)[C@H](CCC(=O)OC2CCCC2)NC(=O)c2cc(OCC(=O)N3CCC[C@H]3C(=O)NC3CCC3)n(-c3ccccc3)n2)CC1 [Example 130, 4-[(S)-2-({5-[2-((S)-2-Cyclobutylcarbamoyl-pyrrolidin-1-yl)-2-oxo-ethoxy]-1-phenyl-1H-pyrazole-3-carbonyl}-amino)-4-cyclopentyloxycarbonyl-butyryl]-piperazine-1-carboxylic acid ethyl ester]
42 nM	CCCOC(=O)CC[C@H](NC(=O)c1cc(OCC(=O)N2CCC[C@H]2C(=O)NC2CCC2)n(-c2ccccc2)n1)C(=O)N1CCN(C(=O)OCC)CC1 [Example 133, 4-[(S)-2-({5-[2-((S)-2-Cyclobutylcarbamoyl-pyrrolidin-1-yl)-2-oxo-ethoxy]-1-phenyl-1H-pyrazole-3-carbonyl}-amino)-4-propoxycarbonyl-butyryl]-piperazine-1-carboxylic acid ethyl ester]
35 nM	CCOC(=O)C(=O)NC[C@H](NC(=O)c1cc(OCC(=O)N2CCC[C@H]2C(=O)NC2CCC2)n(-c2ccccc2)n1)C(=O)N1CCN(C(=O)OCC)CC1 [Example 90, 4-[(S)-2-({5-[2-((S)-2-Cyclobutylcarbamoyl-pyrrolidin-1-yl)-2-oxo-ethoxy]-1-phenyl-1H-pyrazole-3-carbonyl}-amino)-3-(ethoxyoxalyl-amino)-propionyl]-piperazine-1-carboxylic acid ethyl ester]
25 nM	CCOC(=O)N1CCN(C(=O)[C@H](CCC(=O)OCc2ccccc2)NC(=O)c2cc(OCC(=O)N3CCC[C@H]3C(=O)NC3CCC3)n(-c3ccccc3)n2)CC1 [Example 132, 4-[(S)-2-({5-[2-((S)-2-Cyclobutylcarbamoyl-pyrrolidin-1-yl)-2-oxo-ethoxy]-1-phenyl-1H-pyrazole-3-carbonyl}-amino)-4-benzyloxycarbonyl-butyryl]-piperazine-1-carboxylic acid ethyl ester]
